Laboratory results: patent publication US10561704B2, “Compositions and methods for treating neuropsychiatric disorders using an endothelin-B receptor agonist” (MIDWESTERN UNIVERSITY, priority 2013, dated 2020)
*1 amine or outer side, *2 acyl side, *3 side chain or, on linkers, in order; H or OH if unused. Where no end group is shown, it is not given here. Suc = O=C(CCC(=O)[*:2])[*:1]

Key:
[1] = test system: middle cerebral artery occluded rats; experiment: Infarct volume and edema 7 days post middle cerebral artery occlusion; assay type: in vivo
Description: FIG. 12: Two mm coronal sections of brains stained with TTC to visualize the infarct area 7 days post middle cerebral artery occlusion (red indicates normal tissue and white indicates infarct tissue). Representative slices from groups are shown. IRL-1620 (5 μg/kg, IV) or isotonic saline (1 ml/kg, IV) was injected at 2, 4, and 6 hr post MCAO. BQ-788 (1 mg/kg, IV) was administered once 15 min prior to the first injection of IRL-1620 or vehicle.

[2] = test system: Aβ treated non-diabetic and diabetic rats; experiment: Morris water maze test for cognitive impairment in Aβ treated rats; assay type: in vivo, Sprague-Dawley rats
Description: Amyloid-β (1-40) (Tocris Bioscience, Ellisville, Mo., USA), IRL-1620 [N-Succinyl-[Glu9, Ala11,15] endothelin 1] (American Peptide Co, Inc., Sunnyvale, Calif., USA) and BQ788 (American Peptide Co, Inc., Sunnyvale, Calif., USA) were dissolved in sterile saline and all the solutions were freshly prepared before injections. Ketamine (Butler Animal Health Supply, Dublin, Ohio, USA) was administered at a dose of 100 mg/kg, intraperitoneally (i.p.), and xylazine (Lloyd Laboratories, Shenandoah, Iowa, USA) was administered at a dose of 10 mg/kg, i.p. Rats were anesthetized with ketamine (100 mg/kg) and xylazine (10 mg/kg) and a lateral cerebral ventricle was cannulated by placing the rat in a stereotaxic (David Kopf Instruments, Tujunga, Calif., USA) instrument and fixing the cannula (coordinates: 1.0 mm lateral, 1.5 mm caudal to bregma and 4.0 mm deep from the bone). Cannula (Plastics One, Roanoke, Va., USA) was anchored with dental acrylic to three screws placed in the skull. The animals were allowed to recover from surgery for at least seven days. After 7 days, rats were treated with vehicle, Aβ (1-40), ETB receptor agonist and/or antagonist in the lateral cerebral ventricles using the implanted cannula. Vehicle, Aβ or ETB receptor agonist and antagonist were injected in a volume of 5 μl over a period of 5 minutes. Aβ (1-40) was used because it is highly soluble compared to Aβ (1-42) and induces endothelial dysfunction of both cerebral and systemic blood vessels in addition to memory deficit (Nitta et al., 1994; Niwa et al., 2000; Smith et al., 2004; Weller et al., 1998). Agents were delivered using 10 μl Hamilton syringe and agent treatments were carried out individually using separate 10 μl syringe. IRL-1620 was administered 1 hour after Aβ injection whereas BQ788 was administered 15 minutes prior to IRL-1620 injection. At the end of the experiment, placement of cannula was confirmed by injecting methylene blue dye (5 μl) and observing the site and extent of staining. All experiments were performed on day 15 (Briyal et al., 2011). Water maze testing was performed from day 15 to day 19 after which animals were euthanized. Animals used for oxidative stress measurements were euthanized on day 15 without being subjected to any behavioral testing. Diabetes mellitus type 2 was induced in rats belonging to the diabetic group by administering freshly prepared streptozotocin at the dose of 45 mg/kg, i.p. Streptozotocin was dissolved in 0.01 M sodium citrate buffer of pH 4.3. On day 3, blood glucose was obtained from the rat-tail and tested for hyperglycemia using the SureStep Complete Blood Glucose monitor kit. Rats with blood glucose levels above 11.1 mM were considered diabetic. Diabetic and non-diabetic animals were randomly divided into five groups (6 rats per group) (i) Sham, (ii) Aβ+Vehicle, (iii) Aβ+IRL-1620, (iv) Aβ+BQ788 (v) Aβ+BQ788+IRL-1620. Aβ (1-40) was administered intracerebroventricularly (i.c.v.) (20 μg in 3 equally divided doses i.e. 6.67 μg were injected 3 times for a total of 20 μg dose) on day 1, 7, and 14. Specific ETB receptor agonist, IRL-1620 (3 μg) and specific ETB receptor antagonist, BQ788 (10 μg) were administered i.c.v. daily for 14 days starting from day 1 of Aβ injection. The doses of IRL-1620 and BQ788 were selected on the basis of previous studies conducted in our laboratory (Leonard et al., 2011).
Spatial learning and memory of animals were tested in a MWM (Morris, 1984). […]

Molecule	Edema ([1]; MCAO 7 days, BQ-788 followed by IRL-1620)	Edema ([1]; MCAO 7 days, BQ-788 followed by vehicle)	Infarct volume ([1]; MCAO 7 days, BQ-788 given with either vehicle or IRL-1620)	Improvement in escape latency produced by IRL-1620 ([2]; Aβ rats, BQ788 given with IRL-1620)	Time spent in the target quadrant, probe trial ([2]; Aβ treated rats given BQ788)	Edema: infarcted hemisphere larger than non-infarcted hemisphere ([1]; MCAO 7 days)	Infarct volume ([1]; MCAO for 7 days, IRL-1620 5 μg/kg IV at 2, 4, 6 hr post MCAO)	Reduction of infarct volume ([1]; chronic study, 1 week (Leonard et al., 2012))	Escape latency, water maze acquisition ([2]; Aβ treated rats, day 3 and 4 of training, vs Aβ + vehicle)	Path length, water maze acquisition ([2]; Aβ treated rats, vs vehicle group)	Time spent in the target quadrant, probe trial ([2]; Aβ treated rats, vs vehicle treated Aβ rats)
CCCC[C@@H](NC(=O)[C@@H](Cc1cn(C(=O)OC)c2ccccc12)NC(=O)[C@H](CC(C)(C)C)NC(=O)N1[C@H](C)CCC[C@@H]1C)C(=O)O [BQ788, reference compound]	17.97±5.17%	17.02±3.17%	did not reduce	blocked	did not produce any improvement	–	–	–	–	–	–
Suc-Asp-Glu-Glu-Ala-Val-Tyr-Phe-Ala-His-Leu-Asp-Ile-Ile-Trp (Suc-DEEAVYFAHLDIIW) [IRL-1620]	–	–	–	–	–	1.51±1.81%	54.06±14.12 mm^3	69.49%	decreased significantly	shorter path lengths	increased
